What all share (format): cell-based
One experiment has as its system KG-1a cells. As to the kind of experiment: Cell viability assay (CellTiter Glo, 72 hours) in KG-1a cells. Particulars: read-out: Cell Line IC50 (μM) KG-1a. As to the method:
(§1) KG1a (CCL-246.1, ATCC) and CCRF-CEM (CCL-199, ATCC) cells were grown in RPMI-1640 media containing 10% FBS in T-75 flasks to a density of 1×10^6 cells per mL. Exponentially gown cells were used for the assay. Day 1: 7.5×10^3 cells were seeded in each well of 96 well plate. Day 2: Cells were treated with serial dilutions of each compound (starting 20 uM) or with DMSO as control for 72 hours. Day 5: CellTiter Glo (G9241, Promega) was added to the media of each well and measured by plate reader (Synergy 4, Biotek). Data analysis: Using GraphPad Prism 7 (GraphPad).

The next experiment has as its system CCRF-CEM cells. As to the kind of experiment: Cell viability assay (CellTiter Glo, 72 hours) in CEM cells. Particulars: read-out: Cell Line IC50 (μM) CEM. As to the method: as §1
For another experiment, the system named is DNMT-1. As to the kind of experiment: Western blot analysis of DNMT-1 in CEM cells. Particulars: DNMT-1 depletion in CEM cells, 96 hours. The protocol: Cells were treated with serial dilutions of each compound (starting 100 uM for HCT-116 and NCI-H23 cells, and 20 uM for KG-1a and CCRF-CEM cells) or with DMSO as control for 96 hours. Cell lysates were collected and proteins were separated with a SDS-PAGE gel, transferred to a nitrocellulose membrane, blocked in 5% non-fat milk in TBS-T, and probed with anti DNMT-1 (1:7000) rabbit polyclonal antibodies (cat #ab19905, Abcam) in 5% non-fat milk in TBS-T overnight. Membranes were washed three times with TBS-T. The anti-rabbit IgG (7074p2, Cell Signaling) secondary antibody was added at a concentration of 1:5000 in 5% non-fat milk in TBS-T for two hours in room temperature. Membranes were then washed three times with TBS-T, 5 minutes each time. Membranes were then incubated with SuperSignal West Pico Chemiluminescent Substrate (#34080 Thermo) and exposed onto film. Membranes were stripped with stripping buffer (#21059, Thermo) and re-probed with mouse anti tubulin 1:10,000 (T9026, Sigma) and anti-mouse IgG 1:5,000 (70′76p2, Cell Signaling).
A general note: In western blotting, separated proteins are transferred to a membrane and probed.

Experiment [1] concerns CEM cells. As to the kind of experiment: Nucleoside transporter (hENT-1) activity: CEM cell viability with or without the hENT-1 inhibitor dipyridamole. Particulars: for IC50: CEM cells, 72 hours. The protocol: 7.5×10^3 cells/well were plated in a 96 well plate in duplicate. Either compound 2 and Aza-T-dCyd were dosed at a 1:5 10-point serial dilution with a top dose of 5 μM in the presence of 5 μM Dipyridamole (DPD, Sigma Cat #: D9766 CAS 58-32-2), a hENT-1 inhibitor. Cells were cultured in the presence of compound for 72 hours. CellTiter Glo (G9241, Promega) was added to the media of each well and measured by a plate reader (Synergy 4, Biotek). The results were analyzed by GraphPad Prism 7 (GraphPad).

For another experiment, the system named is HCT-116 cells. As to the kind of experiment: Cytidine deaminase (CDA) activity: HCT-116 cell viability with or without the CDA inhibitor tetrahydrouridine. Particulars: for IC50: HCT-116 cells, 72 hours. The protocol:
[…] cells/well were plated in a 96 well plate in duplicate. Tetrahydrouridine (THU), a Cytidine Deaminase inhibitor was dosed at 1:5 10-point serial dilution, with a top dose of 100 μM, as a control. […] Cells were cultured in the presence of compound for 72 hours and then assayed by cell titer glow for viability.

Experiment [2] relates to CEM cells. As to the kind of experiment: Deoxycytidine kinase (dCK) activity: CEM cell viability with or without 2'-deoxycytidine. Particulars: for IC50: CEM cells, 72 hours. As to the method:
7.5×10^3 cells/well were plated in a 96 well plate in duplicate. […] Cells were cultured in the presence of compound for 72 hours. CellTiter Glo (G9241, Promega) was added to the media of each well and measured by a plate reader (Synergy 4, Biotek). The results were analyzed by GraphPad Prism 7 (GraphPad).

Like-named read-outs stand apart in the source and are kept apart here. Some results are limits rather than exact numbers.

What is called IC50 is the midpoint of a concentration-inhibition curve. For the molecule “2-ethylbutyl ((S)-(((2R,3S,5R)-5-(4-amino-2-oxo-1,3,5-triazin-1(2H)-yl)-3-hydroxytetrahydrothiophen-2-yl)methoxy)(phenoxy)phosphoryl)-L-alaninate [Compound 3]”, the IC50 in the experiment with KG-1a cells stood at 1.5 µM; in the experiment on CCRF-CEM cells, 0.16 µM; with DNMT-1, 620 nM; in the experiment on CEM cells [1] (with 5 μM dipyridamole (hENT-1 inhibitor), read-out: CEM IC50 (μM) With DPD (5 μM)) it was 3.1 µM; with CEM cells [1] (without dipyridamole, read-out: CEM IC50 (μM) Without DPD) it was 0.35 µM; in the experiment with HCT-116 cells (with 20 μM tetrahydrouridine (CDA inhibitor), read-out: HCT-116 IC50 (μM) With THU (20 μM)) it was 12 µM. Also, the IC50 in the experiment with HCT-116 cells (without tetrahydrouridine, read-out: HCT-116 IC50 (μM) Without THU) was 8 µM; in the experiment on CEM cells [2] (with 20 μM 2'-deoxycytidine (dCK inhibitor), read-out: CEM IC50 (μM) With dCyd (20 μM)), 6.5 µM; in the experiment on CEM cells [2] (without 2'-deoxycytidine, read-out: CEM IC50 (μM) Without dCyd), 0.3 µM. In addition, the “reliance on hENT-1 to enter the cancer cells” value with CEM cells [1] (conclusion in words from Table 3) is reported as “does not significantly rely on hENT-1”. Further, the “overcoming cytidine deaminase compared to parent drug” value with HCT-116 cells (conclusion in words from Table 4) is “did overcome CAD”. The “reliance on dCK activation compared to parent drug” value in the experiment with CEM cells [2] (conclusion in words from Table 5) is given as “does not rely on dCK activation”.
Turning to `Nc1ncn([C@H]2C[C@H](O)[C@@H](CO)S2)c(=O)n1` [Aza-T-dCyd, 5-aza-4′-Thio-2′-deoxycytidine, reference compound], the IC50 in the experiment on KG-1a cells (Homo sapiens) is 0.03 µM; in the experiment on CCRF-CEM cells (Homo sapiens, CCRF-CEM), 0.03 µM; in the experiment on DNMT-1, 380 nM; in the experiment with CEM cells [1] (Homo sapiens, CCRF-CEM, with 5 μM dipyridamole (hENT-1 inhibitor), read-out: CEM IC50 (μM) With DPD (5 μM)), above 3 µM; with CEM cells [1] (Homo sapiens, CCRF-CEM, without dipyridamole, read-out: CEM IC50 (μM) Without DPD), 0.03 µM; in the experiment with HCT-116 cells (Homo sapiens, with 20 μM tetrahydrouridine (CDA inhibitor), read-out: HCT-116 IC50 (μM) With THU (20 μM)), 0.7 µM. Moreover, the IC50 was 7 µM with HCT-116 cells (Homo sapiens, without tetrahydrouridine, read-out: HCT-116 IC50 (μM) Without THU); 19 µM with CEM cells [2] (Homo sapiens, CCRF-CEM, with 20 μM 2'-deoxycytidine (dCK inhibitor), read-out: CEM IC50 (μM) With dCyd (20 μM)); 0.03 µM in the experiment with CEM cells [2] (Homo sapiens, CCRF-CEM, without 2'-deoxycytidine, read-out: CEM IC50 (μM) Without dCyd).

These data come from patent US20210363170A1, “4'-THIO-NUCLEOTIDE AND -NUCLEOSIDE PRODRUGS FOR THE TREATMENT OF CANCER” (Southern Research Institute, priority 2018, published 2021).
